# According to the supplement of paper PMC10307832:
# Assays:
# Experiment in all cases: relative viability (nuclei count vs DMSO), 5 days (fraction); higher = more cells survive
# XMD13-2 + Tozasertib = compound: C1CC1C(=O)NC2=NNC3=C2C=CC(=C3)C4=CC(=CC=C4)C(=O)NC5CC5 [XMD13-2] + Cc1cc(Nc2cc(N3CCN(C)CC3)nc(Sc3ccc(NC(=O)C4CC4)cc3)n2)n[nH]1 [Tozasertib] (partner 0.1 µM)
# Method in brief: (§1)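 For relative viability, nuclei counts in treated wells were divided by those in vehicle wells. Lung cancer cell lines had been pin-tool dosed in 1536-well plates the day after seeding and cultured for 5 days, then fixed and stained in one step (final 0.05% Triton X-100, 1% formaldehyde, 1 ug/ml Hoechst) and imaged at 4×. Doses were one drug alone or a fixed anchor-drug dose plus five library-drug doses (not always all listed) in √10 steps, and values are duplicate-plate medians.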
# ALW-II-49-7 + Bortezomib = compound: Cc1ccc(C(=O)Nc2cccc(C(F)(F)F)c2)cc1Nc1cncc(C(N)=O)c1 [ALW-II-49-7] + CC(C)C[C@H](NC(=O)[C@H](Cc1ccccc1)NC(=O)c1cnccn1)B(O)O [Bortezomib] (partner 0.002 µM)
# Method in brief: as §1
# ALW-II-49-7 + Crizotinib = compound: Cc1ccc(C(=O)Nc2cccc(C(F)(F)F)c2)cc1Nc1cncc(C(N)=O)c1 [ALW-II-49-7] + C[C@@H](Oc1cc(-c2cnn(C3CCNCC3)c2)cnc1N)c1c(Cl)ccc(F)c1Cl [Crizotinib] (partner 1 µM)
# Method in brief: as §1
# Dasatinib + Vorinostat = compound: Cc1nc(Nc2ncc(C(=O)Nc3c(C)cccc3Cl)s2)cc(N2CCN(CCO)CC2)n1 [Dasatinib] + O=C(CCCCCCC(=O)Nc1ccccc1)NO [Vorinostat] (partner 1 µM)
# Method in brief: as §1
Cell Line,relative viability (XMD13-2 + Tozasertib; first compound 0.05 µM),relative viability (XMD13-2 + Tozasertib; first compound 0.1581 µM),relative viability (XMD13-2 + Tozasertib; first compound 0.5 µM),relative viability (XMD13-2 + Tozasertib; first compound 1.581 µM),relative viability (XMD13-2 + Tozasertib; first compound 5 µM),relative viability (ALW-II-49-7 + Bortezomib; first compound 0.08 µM),relative viability (ALW-II-49-7 + Bortezomib; first compound 0.253 µM),relative viability (ALW-II-49-7 + Bortezomib; first compound 0.8 µM),relative viability (ALW-II-49-7 + Bortezomib; first compound 2.53 µM),relative viability (ALW-II-49-7 + Bortezomib; first compound 8 µM),relative viability (ALW-II-49-7 + Crizotinib; first compound 0.08 µM),relative viability (ALW-II-49-7 + Crizotinib; first compound 0.253 µM),relative viability (ALW-II-49-7 + Crizotinib; first compound 0.8 µM),relative viability (ALW-II-49-7 + Crizotinib; first compound 2.53 µM),relative viability (ALW-II-49-7 + Crizotinib; first compound 8 µM),relative viability (Dasatinib + Vorinostat; first compound 0.005 µM),relative viability (Dasatinib + Vorinostat; first compound 0.01581 µM),relative viability (Dasatinib + Vorinostat; first compound 0.05 µM),relative viability (Dasatinib + Vorinostat; first compound 0.1581 µM),relative viability (Dasatinib + Vorinostat; first compound 0.5 µM)
LCLC-103H,0.542,0.326,0.492,0.545,0.416,1.03,0.859,1.1,0.9,0.962,1.04,1.06,1.07,1.02,1.18,0.852,0.787,0.694,0.582,0.293
LOU-NH91,0.724,0.688,0.734,0.644,0.638,0.425,0.529,0.549,0.316,0.489,0.744,0.767,0.728,0.466,0.703,0.822,0.846,0.687,0.583,0.429
LU99A,0.301,0.294,0.287,0.263,0.272,1.29,1.17,1.05,1.07,1.27,0.535,0.508,0.521,0.604,0.546,0.464,0.448,0.515,0.366,0.288
LXF-289,0.232,0.195,0.194,0.208,0.177,0.973,0.965,1.02,1.1,1.04,0.817,0.817,0.911,0.923,0.876,0.754,0.779,0.762,0.495,0.254
NCI-H23,0.325,0.382,0.397,0.644,0.355,1.12,0.807,1.03,1.12,1.02,0.419,0.475,0.493,0.598,0.509,0.519,0.567,0.512,0.349,0.314
NCI-H322M,0.563,0.52,0.456,0.456,0.517,1.09,1.36,1.43,1.32,1.26,0.928,0.689,0.775,1.04,0.71,0.668,0.535,0.426,0.311,0.258
NCI-H441,0.808,0.652,0.608,0.591,0.53,0.333,0.559,0.431,0.384,0.208,0.772,0.714,0.676,0.598,0.625,0.778,0.651,0.887,0.813,0.581
NCI-H460,0.529,0.407,0.472,0.474,0.415,0.869,1.04,1.04,0.956,1.05,1,0.877,0.802,1.01,0.793,0.659,0.619,0.877,0.475,0.315
NCI-H520,0.495,0.491,0.515,0.395,0.462,0.385,0.528,–,0.441,0.709,0.751,0.638,–,0.682,0.723,0.677,0.476,0.418,0.227,0.229
NCI-H596,0.901,0.942,0.816,0.89,1.03,0.672,0.99,1.18,1,0.953,0.892,0.911,0.978,0.997,1.07,0.59,0.384,0.412,0.313,0.322
NCI-H647,0.585,0.265,0.176,0.229,0.135,0.858,1.13,0.799,0.725,0.801,1.07,1.4,1.28,0.776,0.67,0.674,0.49,0.415,0.149,0.184
NCI-H650,0.783,0.748,0.781,0.716,0.723,0.649,0.906,0.913,0.88,0.663,0.679,0.699,0.62,0.43,0.516,0.413,0.564,0.381,0.384,0.287
NCI-H661,0.335,0.307,0.33,0.36,0.427,0.865,0.796,0.717,–,0.716,–,1,0.922,–,1.04,0.927,0.791,0.851,0.813,0.74
NCI-H727,0.577,0.652,0.666,0.617,0.627,0.678,1.09,0.67,0.895,0.787,0.739,0.874,0.847,0.804,0.885,1.18,0.97,0.841,0.871,0.264
NCI-H838,0.277,0.27,0.263,0.293,0.247,0.71,0.839,0.721,0.64,1.05,0.851,0.871,0.854,0.788,1,0.678,0.632,0.584,0.422,0.348
NCI-H1355,0.64,0.631,0.638,0.548,0.589,0.983,1.26,1.23,1.2,1.08,1,1.03,1.11,0.928,0.935,0.618,0.54,0.655,0.445,0.331

Cell Line,relative viability (XMD13-2 + Tozasertib; first compound 0.05 µM),relative viability (XMD13-2 + Tozasertib; first compound 0.1581 µM),relative viability (XMD13-2 + Tozasertib; first compound 0.5 µM),relative viability (XMD13-2 + Tozasertib; first compound 1.581 µM),relative viability (XMD13-2 + Tozasertib; first compound 5 µM),relative viability (ALW-II-49-7 + Bortezomib; first compound 0.08 µM),relative viability (ALW-II-49-7 + Bortezomib; first compound 0.253 µM),relative viability (ALW-II-49-7 + Bortezomib; first compound 0.8 µM),relative viability (ALW-II-49-7 + Bortezomib; first compound 2.53 µM),relative viability (ALW-II-49-7 + Bortezomib; first compound 8 µM),relative viability (ALW-II-49-7 + Crizotinib; first compound 0.08 µM),relative viability (ALW-II-49-7 + Crizotinib; first compound 0.253 µM),relative viability (ALW-II-49-7 + Crizotinib; first compound 0.8 µM),relative viability (ALW-II-49-7 + Crizotinib; first compound 2.53 µM),relative viability (ALW-II-49-7 + Crizotinib; first compound 8 µM),relative viability (Dasatinib + Vorinostat; first compound 0.005 µM),relative viability (Dasatinib + Vorinostat; first compound 0.01581 µM),relative viability (Dasatinib + Vorinostat; first compound 0.05 µM),relative viability (Dasatinib + Vorinostat; first compound 0.1581 µM),relative viability (Dasatinib + Vorinostat; first compound 0.5 µM)
NCI-H1437,0.427,0.438,0.411,0.395,0.404,0.597,0.478,–,0.436,0.5,0.897,0.865,–,0.869,0.896,0.972,1.04,1.03,0.914,0.59
NCI-H1650,0.439,0.36,0.471,0.381,0.588,0.203,0.218,0.218,0.198,0.206,0.946,0.859,0.931,1.01,1.14,0.591,0.61,0.568,0.406,0.278
NCI-H1651,0.721,0.807,0.64,0.759,0.672,1.06,0.976,1.04,0.933,0.936,0.947,0.767,0.823,0.862,0.835,0.546,0.433,0.481,0.465,0.359
NCI-H1666,0.662,0.602,0.595,0.623,0.518,0.663,0.79,0.87,1.04,0.928,0.948,0.964,0.909,1.06,0.965,1.2,1.06,1.23,1.07,0.761
NCI-H1734,0.258,0.245,0.271,0.228,0.205,1.07,1.14,0.846,0.823,0.738,0.787,0.642,0.614,0.762,0.651,0.721,0.71,0.703,0.529,0.496
NCI-H1755,0.664,0.575,0.498,0.543,0.494,0.963,1.04,0.963,0.923,0.849,0.917,0.859,0.753,0.79,0.69,0.655,0.718,0.568,0.421,0.374
NCI-H1915,0.48,0.488,0.48,0.412,0.335,0.648,1,0.918,0.931,0.67,0.896,0.863,0.828,0.682,0.572,0.539,0.483,0.446,0.374,0.119
NCI-H1975,0.967,0.739,0.735,0.631,0.72,0.274,0.485,0.333,0.338,0.319,0.838,1.04,0.852,0.912,0.893,0.668,0.613,0.654,0.356,0.299
NCI-H1993,0.627,0.529,0.565,0.615,0.545,1.14,1.19,1.01,1.13,1.33,0.744,1.01,0.884,1.06,1.06,0.722,0.73,0.692,0.394,0.435
NCI-H2009,0.849,0.7,0.798,0.728,0.749,1,1.03,0.96,0.783,0.512,1.02,1.02,0.964,0.835,0.729,0.75,0.681,0.762,0.426,0.133
NCI-H2023,0.524,0.34,0.372,0.281,0.309,1.05,0.889,1,0.942,0.666,0.703,0.714,0.554,0.622,0.729,0.681,0.688,0.568,0.561,0.429
NCI-H2085,0.824,0.806,0.905,0.821,0.754,0.989,1,1.13,1.16,0.969,0.762,0.889,0.898,0.905,0.938,0.831,0.632,0.567,0.259,0.202
NCI-H2087,0.264,0.239,0.268,0.223,0.207,0.759,0.959,0.824,0.846,0.857,1.07,0.843,0.957,0.758,0.851,0.954,0.494,0.778,0.714,0.156
NCI-H2126,0.953,0.879,0.81,0.861,0.985,1.09,1.17,1.2,1.08,1.17,0.857,0.976,1.06,0.998,0.987,0.796,0.597,0.755,0.521,0.312
NCI-H2228,0.267,0.32,0.273,0.209,0.237,1.06,0.636,0.975,0.915,1.16,0.541,0.505,0.423,0.483,0.27,0.618,0.564,0.333,0.387,0.388
NCI-H2347,0.559,0.577,0.727,0.487,0.517,0.539,1.28,1.08,0.23,0.566,0.683,0.69,0.676,0.671,0.583,0.422,0.298,0.363,0.263,0.238
